The text below walks through data of US9006244B2, “Liver X receptor modulators” (priority 2012, dated 2015).

As usually defined, the EC50 is the concentration giving half of the maximal effect. For orientation: Ki means a dissociation constant, usually derived from enzyme kinetics or from competition with a known ligand.

Where only a bound is given, the exact number is not on record here.

The target in assay [1] is LXRα (Homo sapiens (Human), UniProt Q13133). Briefly: LXR luciferase transcriptional reporter gene assay, Gal4-LXRα LBD in HEK293 cells. The class given is cell-based. Conditions: pG5-Luc luciferase reporter, 16 h, read-out: LXRα CELL EC50. (In general: A reporter such as luciferase makes a cellular process visible.)
Sequence of LXRα (Q13133 209-447): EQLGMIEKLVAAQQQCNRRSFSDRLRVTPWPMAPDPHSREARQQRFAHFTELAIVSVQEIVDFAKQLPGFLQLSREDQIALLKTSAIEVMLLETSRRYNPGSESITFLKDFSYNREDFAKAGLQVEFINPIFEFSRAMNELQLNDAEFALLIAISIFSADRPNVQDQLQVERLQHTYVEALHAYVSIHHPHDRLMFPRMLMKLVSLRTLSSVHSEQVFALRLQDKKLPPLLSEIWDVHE
Procedure: (§2) The LXR luciferase transcriptional reporter gene assay measures the ability of LXR ligands to promote transcriptional activation via the ligand binding domain (LBD) of LXR. […] 90% confluent cells from a 150 mm dish were seeded in six 100 mm dishes. The cells were batch-transfected with an expression plasmid containing the Gal4 DNA binding domain fused to either the LBD of LXRα or LXRβ and a luciferase reporter plasmid pG5-Luc (Promega, Madison, Wis.), which has Gal4 response elements upstream of firefly luciferase gene (luc+). […] Five h following transfection, 15 mL of 10% charcoal-treated FBS (Hyclone, #SH30070.03) in DMEM were added to the transfected dishes without removing transfection media, and then incubate the cells at 37° C. overnight. The next day, the cells from the transfected dish were trypsinized, washed with PBS, resuspended in 10% charcoal-treated DMEM media and plated into 96-well plates with 60,000 cells/100 μL per well. The cells were incubated at 37° C. for ˜4 h before addition of 100 μL of test compound or control ligand at different concentrations (final DMSO concentration at 0.2%). Following incubation of the cells for 16 h with substances, the culture media were dumped and Bright-Glo™ luciferase reagent (Promega, Cat. #E2610) was added to lyse the cells and initiate the luciferase reaction. Luminescence, as a measure of luciferase activity, was detected in a plate reader (Victor2, PE-Wallac). Transcriptional activation in the presence of a test substance was expressed as fold-change in luminescence compared to that of cells incubated in the absence of the substance. EC50 values were calculated using the XLfit™ program (IDBS, Guilford, UK).
Assay [2] addresses LXRα ligand binding domain (LBD) (Homo sapiens (Human), UniProt Q13133). Briefly: LXR α radioligand binding assay (SPA, [3H]TO901317 competition). On the procedure:
(§1) Poly-lysine SPA beads (50 μg) were added to each well and the total volume was adjusted to 120 μL. The plates were shaken on an orbital shaker for 20 min and then allowed to settle for 10 more minutes at rt before a brief centrifugation at 2,000 rpm for 1 min.

For assay [3], the target named is LXRβ (Homo sapiens (Human), UniProt P55055). Put plainly: LXR luciferase transcriptional reporter gene assay, Gal4-LXRβ LBD in HEK293 cells. The class given is cell-based. To be noted: pG5-Luc luciferase reporter, 16 h, read-out: LXRβ CELL EC50.
Sequence of LXRβ (P55055 222-460): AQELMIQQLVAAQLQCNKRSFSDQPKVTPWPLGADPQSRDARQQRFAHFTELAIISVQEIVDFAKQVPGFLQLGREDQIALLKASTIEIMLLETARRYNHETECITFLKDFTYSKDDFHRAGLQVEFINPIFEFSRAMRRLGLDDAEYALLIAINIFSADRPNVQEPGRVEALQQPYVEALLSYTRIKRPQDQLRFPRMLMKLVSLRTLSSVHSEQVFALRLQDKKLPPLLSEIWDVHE
Procedure: as §2
Assay [4] concerns the target LXRβ ligand binding domain (LBD) (Homo sapiens (Human), UniProt P55055). Put plainly: LXR β radioligand binding assay (SPA, [3H]TO901317 competition). To be noted: for selectivity for the LXRβ subtype over the LXRα subtype: LXRβ versus LXRα, statement in the summary. On the procedure: as §1

Sequence of LXRβ ligand binding domain (LBD) (P55055 222-460): as above
Sequence of LXRα ligand binding domain (LBD) (Q13133 209-447): as the sequence (Q13133 209-447) above

Take `CC(C)[C@H]1c2cc3cc(CO)c(S(C)(=O)=O)cc3n2CCN1c1nccc(C(F)(F)F)n1` (single isomer, unassigned) [Compound E4b, (1-isopropyl-7-(methylsulfonyl)-2-(4-(trifluoromethyl)pyrimidin-2-yl)-1,2,3,4-tetrahydropyrazino[1,2-a]indol-8-yl)methanol]: the EC50 in assay [1] and in assay [3] was > 20000 nM each time. The Ki is > 3330 nM in assay [2] and 846 nM in assay [4].

Consider `CC(C)[C@@H]1c2cc3cc(CO)c(S(C)(=O)=O)cc3n2CCN1c1nccc(C(F)(F)F)n1` (single isomer, unassigned) [Compound E4a, (1-isopropyl-7-(methylsulfonyl)-2-(4-(trifluoromethyl)pyrimidin-2-yl)-1,2,3,4-tetrahydropyrazino[1,2-a]indol-8-yl)methanol], for which the concentration giving a half-maximal response (EC50) in assay [1] came to 163 nM; in assay [3], 10 nM. The Ki in assay [2] stood at 43 nM; in assay [4], 4 nM. Further, the “selectivity for the LXRβ subtype over the LXRα subtype” value in assay [4] is reported as “selective for the LXRβ subtype over the LXRα subtype”.

As for `CC(C)[C@@H]1c2nc3cc(CO)c(S(C)(=O)=O)cc3n2CCN1c1nccc(C(F)(F)F)n1` (single isomer, unassigned) [Compound E2a], the EC50 in assay [1] worked out at 340 nM; in assay [3] it was 13 nM. The Ki came to 318 nM in assay [2] and 20 nM in assay [4]. Also, the “selectivity for the LXRβ subtype over the LXRα subtype” value in assay [4] was “selective for the LXRβ subtype over the LXRα subtype”.

`CC(C)[C@H]1c2cc3ccc(S(C)(=O)=O)cc3n2CCN1c1nccc(C(F)(F)F)n1` (single isomer, unassigned) [Compound E3b, 1-isopropyl-7-(methylsulfonyl)-2-(4-(trifluoromethyl)pyrimidin-2-yl)-1,2,3,4-tetrahydropyrazino[1,2-a]indole]: the EC50 in assay [1] is > 20000 nM. For the same compound, the Ki in assay [2] was > 3330 nM.

In the case of `CC(C)C1c2nc3ccc(S(C)(=O)=O)cc3n2CCN1c1nccc(C(F)(F)F)n1` (centres unmarked) [Compound E1, 1-isopropyl-7-(methylsulfonyl)-2-(4-(trifluoromethyl)pyrimidin-2-yl)-1,2,3,4-tetrahydrobenzo[4,5]imidazo[1,2-a]pyrazine], the EC50 in assay [1] was found to be 3370 nM; in assay [3], 313 nM. Moreover, the Ki in assay [2] is 1770 nM; in assay [4], 256 nM.

`CC(C)[C@@H]1c2cc3ccc(S(C)(=O)=O)cc3n2CCN1c1nccc(C(F)(F)F)n1` (single isomer, unassigned) [Compound E3a, 1-isopropyl-7-(methylsulfonyl)-2-(4-(trifluoromethyl)pyrimidin-2-yl)-1,2,3,4-tetrahydropyrazino[1,2-a]indole]: the EC50 in assay [1] is 1100 nM. Besides, the Ki in assay [2] was determined as 398 nM.

In the case of `CC(C)[C@H]1c2nc3cc(CO)c(S(C)(=O)=O)cc3n2CCN1c1nccc(C(F)(F)F)n1` (single isomer, unassigned) [Compound E2b], the figures for the EC50 in assay [1] and in assay [3] were 17300 nM and 6940 nM, respectively. The Ki is > 3330 nM in assay [2] and > 2500 nM in assay [4].
